Tested on: 156681-154-R-J1 tumor spheroid viability
Test: Anticancer human tumor 156681-154-R-J1 patient-derived melanoma cell line growth inhibition
Settings: spheroids with HUVEC and MSC; for IC50: curve of first compound; for viability, T/C: stronger effect = lower value
Summary of the method: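 Single agents and combinations were tested on spheroids built from tumor cells plus HUVEC and hMSC, at half-log dilutions starting at or near clinical Cmax, else 10 microM; final DMSO 0.25% (v/v).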
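Further: spheroids exposed to compounds for 7 days before readout.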
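Wherever viability, T/C is given: percent of vehicle control viability where 100% = DMSO-treated spheroids.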

Q: Which IC50 (second compound 30 pM) does the source give for `COc1ccc([C@@H](O)c2cc(-c3ncnc4cc(N5CCOCC5)ccc34)c(F)cc2Cl)nn1` + COc1cc2c(cc1O)CCNC21CSC2c3c(OC(C)=O)c(C)c4c(c3C(COC1=O)N1C(O)C3Cc5cc(C)c(OC)c(O)c5C(C21)N3C)OCO4 here?
A: 9850 nM

Q: What about the IC50 (second compound 94.9 pM) of the same molecule?
A: 5110 nM

Q: What about the IC50 (second compound 0.0003 µM) of the same molecule?
A: 427 nM

Q: What about the IC50 (second compound 0.000949 µM) of the same molecule?
A: < 31.6 nM

Q: And the IC50 (second compound 0.003 µM)?
A: < 31.6 nM

Q: And the viability, T/C (second compound 30 pM, first compound 0.0316 µM)?
A: 118%

Q: And the viability, T/C (second compound 30 pM, first compound 0.1 µM)?
A: 107%

Q: And the viability, T/C (second compound 30 pM, first compound 0.316 µM)?
A: 88.5%

Q: What about the viability, T/C (second compound 30 pM, first compound 1 µM) of the same molecule?
A: 84.7%

Q: What about the viability, T/C (second compound 30 pM, first compound 3.16 µM) of the same molecule?
A: 64%

Q: And the viability, T/C (second compound 30 pM, first compound 10 µM)?
A: 49.5%

Q: What about the viability, T/C (second compound 94.9 pM, first compound 0.0316 µM) of the same molecule?
A: 108%

Q: What about the viability, T/C (second compound 94.9 pM, first compound 0.1 µM) of the same molecule?
A: 92%

Q: What about the viability, T/C (second compound 94.9 pM, first compound 0.316 µM) of the same molecule?
A: 89.9%

Q: And the viability, T/C (second compound 94.9 pM, first compound 1 µM)?
A: 69.5%

Q: What about the viability, T/C (second compound 94.9 pM, first compound 3.16 µM) of the same molecule?
A: 55.9%

Q: What about the viability, T/C (second compound 94.9 pM, first compound 10 µM) of the same molecule?
A: 41.5%

Q: And the viability, T/C (second compound 0.0003 µM, first compound 0.0316 µM)?
A: 83.5%

Q: What about the viability, T/C (second compound 0.0003 µM, first compound 0.1 µM) of the same molecule?
A: 79.5%

Q: What about the viability, T/C (second compound 0.0003 µM, first compound 0.316 µM) of the same molecule?
A: 54.1%

Q: And the viability, T/C (second compound 0.0003 µM, first compound 1 µM)?
A: 32.4%

Q: And the viability, T/C (second compound 0.0003 µM, first compound 3.16 µM)?
A: 4.29%

Q: What about the viability, T/C (second compound 0.0003 µM, first compound 10 µM) of the same molecule?
A: 0.28%

Q: And the viability, T/C (second compound 0.000949 µM, first compound 0.0316 µM)?
A: 5.23%

Q: And the viability, T/C (second compound 0.000949 µM, first compound 0.1 µM)?
A: 2.87%

Q: And the viability, T/C (second compound 0.000949 µM, first compound 0.316 µM)?
A: 0.68%

Q: What about the viability, T/C (second compound 0.000949 µM, first compound 1 µM) of the same molecule?
A: 0.1%

Q: What about the viability, T/C (second compound 0.000949 µM, first compound 3.16 µM) of the same molecule?
A: 0.07%

Q: What about the viability, T/C (second compound 0.000949 µM, first compound 10 µM) of the same molecule?
A: 0.18%

Q: And the viability, T/C (second compound 0.003 µM, first compound 0.0316 µM)?
A: 0.27%

Q: What about the viability, T/C (second compound 0.003 µM, first compound 0.1 µM) of the same molecule?
A: 0.3%

Q: What about the viability, T/C (second compound 0.003 µM, first compound 0.316 µM) of the same molecule?
A: 0.22%

Q: And the viability, T/C (second compound 0.003 µM, first compound 1 µM)?
A: 0.18%

Q: What about the viability, T/C (second compound 0.003 µM, first compound 3.16 µM) of the same molecule?
A: 0.16%

Q: What about the viability, T/C (second compound 0.003 µM, first compound 10 µM) of the same molecule?
A: 0.28%

Q: `CNCc1ccc(-c2cc(-c3nc(-c4ccc(S(=O)(=O)C(C)C)cc4)cnc3N)on2)cc1` + COc1cc2c(cc1O)CCNC21CSC2c3c(OC(C)=O)c(C)c4c(c3C(COC1=O)N1C(O)C3Cc5cc(C)c(OC)c(O)c5C(C21)N3C)OCO4 was tested. Which IC50 (second compound 30 pM) did it give?
A: 1120 nM

Q: And the IC50 (second compound 94.9 pM)?
A: 870 nM

Q: And the IC50 (second compound 0.0003 µM)?
A: 581 nM

Q: And the IC50 (second compound 0.000949 µM)?
A: < 9.49 nM

Q: And the IC50 (second compound 0.003 µM)?
A: < 9.49 nM

Q: What about the viability, T/C (second compound 30 pM, first compound 0.00949 µM) of the same molecule?
A: 119%

Q: What about the viability, T/C (second compound 30 pM, first compound 0.03 µM) of the same molecule?
A: 103%

Q: What about the viability, T/C (second compound 30 pM, first compound 0.0949 µM) of the same molecule?
A: 99%

Q: And the viability, T/C (second compound 30 pM, first compound 0.3 µM)?
A: 85.2%

Q: And the viability, T/C (second compound 30 pM, first compound 0.949 µM)?
A: 53.5%

Q: What about the viability, T/C (second compound 30 pM, first compound 3 µM) of the same molecule?
A: 17%

Q: And the viability, T/C (second compound 94.9 pM, first compound 0.00949 µM)?
A: 112%

Q: And the viability, T/C (second compound 94.9 pM, first compound 0.03 µM)?
A: 113%

Q: And the viability, T/C (second compound 94.9 pM, first compound 0.0949 µM)?
A: 101%

Q: And the viability, T/C (second compound 94.9 pM, first compound 0.3 µM)?
A: 77.1%

Q: What about the viability, T/C (second compound 94.9 pM, first compound 0.949 µM) of the same molecule?
A: 49.3%

Q: What about the viability, T/C (second compound 94.9 pM, first compound 3 µM) of the same molecule?
A: 2.05%

Q: What about the viability, T/C (second compound 0.0003 µM, first compound 0.00949 µM) of the same molecule?
A: 90.6%

Q: And the viability, T/C (second compound 0.0003 µM, first compound 0.03 µM)?
A: 100%

Q: What about the viability, T/C (second compound 0.0003 µM, first compound 0.0949 µM) of the same molecule?
A: 90.4%

Q: And the viability, T/C (second compound 0.0003 µM, first compound 0.3 µM)?
A: 69.1%

Q: And the viability, T/C (second compound 0.0003 µM, first compound 0.949 µM)?
A: 35.4%

Q: What about the viability, T/C (second compound 0.0003 µM, first compound 3 µM) of the same molecule?
A: 1.71%

Q: What about the viability, T/C (second compound 0.000949 µM, first compound 0.00949 µM) of the same molecule?
A: 3.5%

Q: And the viability, T/C (second compound 0.000949 µM, first compound 0.03 µM)?
A: 5.91%

Q: What about the viability, T/C (second compound 0.000949 µM, first compound 0.0949 µM) of the same molecule?
A: 4.37%

Q: And the viability, T/C (second compound 0.000949 µM, first compound 0.3 µM)?
A: 3.55%

Q: And the viability, T/C (second compound 0.000949 µM, first compound 0.949 µM)?
A: 1.04%

Q: And the viability, T/C (second compound 0.000949 µM, first compound 3 µM)?
A: 0.15%

Q: And the viability, T/C (second compound 0.003 µM, first compound 0.00949 µM)?
A: 0.16%

Q: And the viability, T/C (second compound 0.003 µM, first compound 0.03 µM)?
A: 0.17%

Q: What about the viability, T/C (second compound 0.003 µM, first compound 0.0949 µM) of the same molecule?
A: 0.17%

Q: What about the viability, T/C (second compound 0.003 µM, first compound 0.3 µM) of the same molecule?
A: 0.12%

Q: And the viability, T/C (second compound 0.003 µM, first compound 0.949 µM)?
A: 0.12%

Q: And the viability, T/C (second compound 0.003 µM, first compound 3 µM)?
A: 0.24%

Reference: PubChem BioAssay AID1845195 (Molecular Pharmacology Branch, DTP, NCI, 2023)
